Measured values as given in patent US20180085392A1, “CYCLODEXTRIN COMPOUNDS FOR THE PREVENTION AND TREATMENT OF AGING” (SENS RESEARCH FOUNDATION, INC., priority 2015, published 2018).
Several values for one entry are separate records, joined by “and”; a condition that tells them apart may be missing. Equal entries are not always repeated.

Experiments:
[1] = test system: human skin cells (human fibroblast cells); assay: Flow cytometry of non-bisretinoid lipofuscin content per cell; assay type: cell-based; conditions: for total non-bisretinoid lipofuscin content, Average / total non-bisretinoid lipofuscin content, individual samples 1-4: 2HPβCD for five days
From the text: Table 3 and FIG. 4 presents data obtained from the treatment of human fibroblast cells with 10 rng/ml 2HPβCD for five days.
The values of Table 3 represent total non-bisretinoid lipofuscin content measured in fluorescent units per cell using a BD FACSCANTO™ II flow cytometer (BD Biosciences, San Jose, Calif.). Measurements were made with a 488 nm blue argon laser with a 530/30 nm FITC band pass filter. The total cell population size for each individual sample measurement was n>15,000 cells.

fibroblasts [2] = assay: Confocal microscopy of lipofuscin in fibroblasts; assay type: cell-based; conditions: after 8 days (FIG. 5)
From the text: FIG. 5 provides representative confocal photomicrographs wherein the accumulation of lipofuscin in fibroblasts that were either treated with HPβCD or were not treated with HPβCD was fluorescently imaged over the course of 8 days.

THP-1 cells = assay: Acridine orange uptake assay for lysosomal membrane permeabilization; assay type: cell-based
Procedure: To prepare FIG. 3A-B, THP-1 cells were exposed to different LDL treatments over 7 days and then assessed for lysosomal membrane permeabilization using an acridine orange uptake assay. In FIG. 3A: Acridine orange was excited at 488 nm and emissions recorded at 633 and 520 nm. Higher signal intensities at 520 nm and lower intensities at 633 nm were indicative of lysosomal instability. 7KC-LDL induced lysosomal membrane permeabilization that was attenuated by HβCD that was added to samples on day 6. In FIG. 3B: Flow cytometry signal are presented as intensities as a percent of control (normal LDL-treated). […] Although both the 633 nm and 520 nm signal intensities decreased after HβCD amendment for oxLDL and 7KC-LDL, the decrease in the 520 nm signal was of greater magnitude, thereby indicating increased lysosomal stability.

[3] = test system: lipofuscin loaded cells (PC cells) (human skin fibroblasts); assay: Autofluorescence of lipofuscin loaded cells (removal of pre-existing lipofuscin); assay type: cell-based; conditions: PC cells treated day 5 to day 10 and further 48 hours; untreated 13%; p 0.05
Procedure: FIG. 6 provides representative quantified data of the autofluorescence of lipofuscin loaded cells (PC cells) (human skin fibroblasts, Coriell Cell Repositories, Catalog #GM00498) either untreated or treated with CD in order to track the removal of lipofuscin already present within the PC cells. To perform the assay, PC cells were allowed to grow for 5 days, and the PC cells were treated such that lipofuscin was produced only from day 1 through […]. After 5 days, one population of cells (“treated population”, PC+cyclodextrin in FIG. 6) was treated with cyclodextrin from day 5 to day 10, whereas a second population of cells (“untreated population”, PC only in FIG. 6) remained untreated from day 5 to day 10. On day 10, lipofuscin levels were measured for both cell populations. Following this measurement, the untreated population was placed in media only for 48 hours whereas the treated population was placed in media containing cyclodextrin for 48 hours. 48 hours following this transfer of the cell populations to their respective media, the lipofuscin levels of both the untreated and treated populations were again measured. […] The p-value comparing the percentage differences between the treated and untreated populations was 0.05. […]

fibroblasts [4] = assay: Fluorescence imaging of native lipofuscin in fibroblasts; assay type: cell-based; conditions: for native lipofuscin autofluorescence versus untreated cells: fibroblasts maintained 16 days, cyclodextrin during days 1-8 (FIG. 7A-B)
Procedure: Healthy fibroblasts were passaged (˜P25) and grown to confluency in media. The cells in FIG. 7A (“untreated”) were maintained for 16 days; likewise, the cells in FIG. 7B (“treated”) were maintained for 16 days, however, cyclodextrin was added to the treated cells during days 1-8. Following the 16 day period of cell maintenance, lipofuscin levels were observed using fluorescence imaging as lipofuscin appears as a bright red autofluorescent material during fluorescence-based imaging. […] In order to ascertain whether or not the untreated or treated fibroblasts appeared healthy after the 16 day period of maintenance, both the untreated and treated fibroblasts were imaged with 60× magnification using light microscopy.

human skin fibroblasts = assay: CCK-8 cell viability assay; assay type: cell-based; conditions: days 4, 7 and 10; NC+CD and T versus NC and PC
Procedure: In order to determine whether cells were still viable when treated with cyclodextrin, a CCK-8 assay was performed on cells (human skin fibroblasts, Coriell Cell Repositories, Catalog #GM00498) over the course of a 10 days period (FIG. 8). On each day 4, day 7, and day 10, the viability of the cells was ascertained through a CCK-8 assay whereby colorimetric change was indicative of change in the cell viability status. The cell populations tested on day 4, day 7, and day 10 were healthy negative control cells (NC), healthy cells treated with cyclodextrin (NC+CD), lipofuscin loaded cells (PC), and lipofuscin loaded cells treated with cyclodextrin (T). […] FIG. 8 also presents blanks that were used as controls (the blanks appear circled in red in FIG. 8).

TFEB = assay: RT-PCR analysis of major lysosome genes; assay type: cell-based; conditions: NC w/CD and PC w/CD at day 10 compared to PC
Procedure: (§1) To address the mechanisms by which cyclodextrin treatment can remove lipofuscin from cells, a RT-PCR analysis of major lysosome genes was performed (FIG. 9). Healthy cells treated with cyclodextrin (“NC w/CD”), lipofuscin loaded cells (“PC”), and lipofuscin loaded cells treated with cyclodextrin (“PC w/CD”) were maintained for 10 days. Following the 10 day period, RT-PCR was performed on each cell population in order to ascertain the regulation status of the major lysosome genes ULK1, TFEB, and HMOX.

ULK1 = assay: RT-PCR analysis of major lysosome genes; assay type: cell-based; conditions: NC w/CD and PC w/CD at day 10 compared to PC
Procedure: as §1

[5] = test system: cholesterol present in a cell population; assay: Filipin staining of cellular cholesterol; assay type: cell-based; conditions: for cholesterol content of cells by filipin stain: after 4 days of maintenance, 100× (FIG. 11A-D)
Procedure: To further address the mechanism by which cyclodextrin treatment can decrease the concentration of lipofuscin in cells, filipin staining experiments were performed (FIG. 10A-D, FIG. 11A-D, and FIG. 12A-D). Filipin stain can be used to visualize the cholesterol present in a cell population. FIG. 10A and FIG. 10C provide representative photomicrographs of two different cell populations before confluency. Four days after the time the micrographs in FIG. 10A and FIG. 10C were produced, a filipin stain was applied to both cell populations (FIG. 10B and FIG. 10D), however, in the case of FIG. 10D, the cell population was treated with cyclodextrin for 3.5 hours before the filipin staining procedure. […] In order to measure the effects of long term cyclodextrin treatment, untreated healthy cells (NC), healthy cells treated with cyclodextrin (NC w/CD), untreated cells loaded with lipofuscin (PC), and cells loaded with lipofuscin and treated with cyclodextrin (PC w/CD) were filipin stained and imaged at 100× magnification after 4 days of maintenance (FIG. 11A-D) and were filipin stained and imaged at 200× magnification after 9 days of cell maintenance (FIG. 12A-D).

[6] = test system: NC and PC cell populations; assay: Cell survival after exposure to lysomotropic agent MSDH; assay type: cell-based; conditions: for cell survival after MSDH: 45 μM MSDH for 42 hours; for cell death after MSDH: 55 μM MSDH for 42 hours
Procedure: To further elucidate the mechanism by which cyclodextrin can decrease the concentration of lipofuscin in cells, an assay in which the lysomotropic agent MSDH was administered to cells in order to measure the effect of cyclodextrin administration on cellular health post-MSDH treatment was performed (FIG. 13A-D and FIG. 14A-D). FIG. 13A-D provides representative photomicrographs of NC, PC, NC w/CD, and PC w/CD cell populations after 42 hours of exposure to 45 μM of MSDH. […] FIG. 14A-D provides representative photomicrographs of NC (FIG. 14A), PC (FIG. 14B), NC w/CD (FIG. 14C), and PC w/CD (FIG. 14D) cell populations, respectively, after the populations were exposed to an increased level of MSDH for an increased […] (55 μM for 42 hours). […] The results of FIG. 14A-D were indicative of different degrees of lysosomal membrane cholesterol composition change pending cyclodextrin treatment and lipofuscin levels, with the aged lipofuscin loaded cells treated with cyclodextrin being the most resistant to MSDH treatment (FIG. 14D).

cultured cells = conditions: cited from earlier work
[7] = Aged Human Skin Cells + 2-HPCD (Test)
[8] = Human Skin Cells + 2-HPCD (Negative Control + Drug)

2-hydroxypropyl-β-cyclodextrin [HPβCD]
total non-bisretinoid lipofuscin content, Average [1, 7]: 6131 fluorescent units per cell | total non-bisretinoid lipofuscin content, individual samples 1-4 [1, 7]: 6278 fluorescent units per cell and 6453 fluorescent units per cell and 5982 fluorescent units per cell and 5809 fluorescent units per cell | total non-bisretinoid lipofuscin content, Average [1, 8]: 2600 fluorescent units per cell | total non-bisretinoid lipofuscin content, individual samples 1-4 [1, 8]: 2552 fluorescent units per cell and 2564 fluorescent units per cell and 2638 fluorescent units per cell and 2647 fluorescent units per cell | lipofuscin levels by flow cytometry fluorescence (in words) ([1]; aged human skin cells, 5-day treatment (FIG. 4)): decreased | reduction of non-bisretinoid lipofuscin ([1]; aged human skin cells, 5-day treatment, p<0.00001): 31.4% | lipopigment accumulation (fluorescence) versus untreated fibroblasts (fibroblasts [2]): lower lipopigment accumulation | lysosomal destabilization/permeability caused by 7-ketocholesterol (7KC-LDL) (THP-1 cells; LDL treatments over 7 days, HβCD added on day 6 (FIG. 3A)): attenuated | 633 nm/520 nm ratio of acridine orange signal (THP-1 cells; nLDL, oxLDL and 7KC-LDL (FIG. 3B)): improved | decrease in autofluorescence from day 10 to day 12 [3]: 23% | appearance of treated fibroblasts by light microscopy (fibroblasts [4]; after 16 day period, 60× magnification (FIG. 7C-D)): appeared to be healthy | native lipofuscin autofluorescence versus untreated cells (fibroblasts [4]): visibly decreased | native lipofuscin autofluorescence versus untreated cells (fibroblasts [4]; listed as cyclodextrin): significantly reduced | cell viability, colorimetric change in CCK-8 assay (human skin fibroblasts): no visible colorimetric difference | regulation of TFEB (TFEB): no upregulation | regulation of ULK1 (ULK1): no upregulation | cholesterol content of cells by filipin stain [5]: increased | cholesterol content of cells by filipin stain ([5]; listed as cyclodextrin): reduction of the cholesterol content | overall cellular levels of cholesterol by filipin stain ([5]; long term treatment, after 9 days of maintenance, 200× (FIG. 12A-D)): increase the overall cellular levels of cholesterol | total cholesterol by filipin stain ([5]; treated for 3.5 hours before staining (FIG. 10D vs 10B)): reduction in total cholesterol | cell survival after MSDH ([6]; NC w/CD (healthy cells), untreated NC killed): able to survive | cell death after MSDH ([6]; NC w/CD (healthy cells), untreated NC complete death): moderate death | cell survival after MSDH ([6]; PC w/CD (lipofuscin loaded cells)): able to survive | cell death after MSDH ([6]; PC w/CD (lipofuscin loaded cells), untreated PC moderate death): no death

methyl-β-cyclodextrin [MβCD]
efficiency of cholesterol removal compared with β-cyclodextrin (cultured cells): more efficient
